Source: patent US20060276416A1, “Methods and compositions for treating flushing and drug induced weight gain” (Sirtris Pharmaceuticals, Inc., priority 2005, published 2006)

Experiments:
recombinant human SIRT1 = molecular target: T1, recombinant human SIRT1 (Homo sapiens, UniProt Q96EB6); assay: SIRT1 fluorescent deacetylation assay (p53-382 acetylated peptide); assay type: biochemical
T1 sequence (Q96EB6 1-747): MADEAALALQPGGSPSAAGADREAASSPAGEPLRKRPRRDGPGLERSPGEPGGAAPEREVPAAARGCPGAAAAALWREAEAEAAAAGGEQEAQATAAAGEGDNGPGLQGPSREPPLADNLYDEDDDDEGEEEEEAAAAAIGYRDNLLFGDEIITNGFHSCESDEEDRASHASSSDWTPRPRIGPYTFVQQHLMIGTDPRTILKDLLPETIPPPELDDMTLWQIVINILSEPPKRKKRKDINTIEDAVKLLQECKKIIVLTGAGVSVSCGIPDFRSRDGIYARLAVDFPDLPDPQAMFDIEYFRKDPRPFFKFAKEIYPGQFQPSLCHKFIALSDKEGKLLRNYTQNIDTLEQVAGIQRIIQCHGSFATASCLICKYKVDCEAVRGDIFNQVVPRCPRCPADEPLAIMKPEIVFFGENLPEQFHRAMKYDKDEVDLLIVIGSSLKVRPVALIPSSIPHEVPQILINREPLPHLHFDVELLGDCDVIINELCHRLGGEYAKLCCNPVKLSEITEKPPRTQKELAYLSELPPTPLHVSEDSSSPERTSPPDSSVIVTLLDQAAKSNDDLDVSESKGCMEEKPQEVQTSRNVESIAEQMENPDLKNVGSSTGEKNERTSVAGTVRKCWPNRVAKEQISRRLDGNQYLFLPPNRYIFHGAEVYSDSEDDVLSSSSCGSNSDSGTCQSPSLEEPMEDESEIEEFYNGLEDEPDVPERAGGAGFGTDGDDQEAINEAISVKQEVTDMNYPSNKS
Experimental: To identify compounds that modulate SIRT1 activity, a number of small molecule libraries were screened using a fluorescent deacetylation assay in 96-well plates^26. The substrate used in the assay was a fluorogenic peptide based on the sequence encompassing the p53-K382 acetylation site, a known target of SIRT1 in vivo^20,21,27. […] The small molecule libraries included analogues of nicotinamide, ε-acetyl lysine, NAD^+, nucleotides, nucleotide analogues and purinergic ligands.
From 0.1 to 1 μg of SIRT1 and 1.5 μg of Sir2 were used per deacetylation assay (in 50 μl total reaction) as previously described^26. SIRT1 assays and certain of those for Sir2 employed the p53-382 acetylated substrate (‘Fluor de Lys-SIRT1’, BIOMOL) rather than FdL.
Themed compound libraries (BIOMOL) were used for primary and secondary screening. Most polyphenol compounds were dissolved at 10 mM in dimethylsulfoxide (DMSO) on the day of the assay. For water soluble compounds and negative controls, 1% v/v DMSO was added to the assay. In vitro fluorescence assay results were read in white ½-volume 96-well microplates (Corning Costar 3693) with a CytoFluor™ II fluorescence plate reader (PerSeptive Biosystems, Ex. 360 nm, Em. 460 nm, gain=85). […] Unless otherwise indicated all initial rate measurements were means of three or more replicates, obtained with single incubation times, at which point 5% or less of the substrate initially present had been deacetylated. Calculation of net fluorescence increases included subtraction of a blank value, which in the case of Sir2 was obtained by omitting the enzyme from the reaction and in the case of SIRT1 by adding an inhibitor (200 μM suramin or 1 mM nicotinamide) to the reaction prior to the acetylated substrate. A number of the polyphenols partially quenched the fluorescence produced in the assay and correction factors were obtained by determining the fluorescence increase due to a 3 μM spike of an FdL deacetylated standard (BIOMOL, catalog number KI-142). All error bars represent the standard error of the mean.
All SIRT1 rate measurements used in the calculation of “Ratio to Control Rate” were obtained with 25 μM NAD^+ and 25 μM p53-382 acetylated peptide substrate were performed as described above and in K. T. Howitz et al. Nature (2003) 425: 191. All ratio data were calculated from experiments in which the total deacetylation in the control reaction was 0.25-1.25 μM peptide or 1-5% of the initial concentration of acetylated peptide.

[1] = tested on: ribosomal DNA recombination; assay: Ribosomal DNA recombination assay (loss of ADE2 marker); assay type: cell-based, S. cerevisiae
C. elegans [2] = assay: C. elegans lifespan assay; assay type: in vivo
Experimental: Thus, the presence of resveratrol in the growth media of C. elegans extends their lifespan.
Bristol N2 (Caenorhabditis Genetics Center) was used as the wild-type strain. The sir-2.1 mutant strain was generated by backcrossing VC 199 (sir-2.1 (ok434)) to N2 four times. Cultures were grown on standard NGM media and maintained on E. coli strain OP50. For the lifespan assays, synchronized animals were transferred to treatment plates as young adults (2 d after hatching, day 0 of assay), and were transferred to fresh treatment plates every 2 days for the first 6 to 8 days of the assay. […] For some lifespan trials, heat-killed OP50 were used as a food source. OP50 cultures were heated to 65° C. for 30 minutes, then pelleted and resuspended in 1/10 volume in S Basal supplemented with 10 mM MgSO4. In all assays, worms were monitored daily for mortality by gently probing with a platinum pick. Assays were performed at 24° C. To assay worm feeding rates, worms at the indicated stages were placed on treatment plates (no FUdR) for 4-5 hours, then videoed for 1 minute using a Pixelink PL-662 camera. The frame rate was slowed and the pumping rate of the pharynx was counted. To assay fecundity, gravid hermaphrodites (5 per plate, raised from synchronized L1s on normal or treatment plates) were allowed to lay eggs on their respective media for 5 hours, and the total number of eggs was counted.

recombinant SIR-2.1 = recombinant SIR-2.1 (Caenorhabditis elegans, UniProt Q21921); assay: SIR-2.1 deacetylation assay (Fluor de Lys); assay type: biochemical, C. elegans
recombinant SIR-2.1, sequence (Q21921 whole entry): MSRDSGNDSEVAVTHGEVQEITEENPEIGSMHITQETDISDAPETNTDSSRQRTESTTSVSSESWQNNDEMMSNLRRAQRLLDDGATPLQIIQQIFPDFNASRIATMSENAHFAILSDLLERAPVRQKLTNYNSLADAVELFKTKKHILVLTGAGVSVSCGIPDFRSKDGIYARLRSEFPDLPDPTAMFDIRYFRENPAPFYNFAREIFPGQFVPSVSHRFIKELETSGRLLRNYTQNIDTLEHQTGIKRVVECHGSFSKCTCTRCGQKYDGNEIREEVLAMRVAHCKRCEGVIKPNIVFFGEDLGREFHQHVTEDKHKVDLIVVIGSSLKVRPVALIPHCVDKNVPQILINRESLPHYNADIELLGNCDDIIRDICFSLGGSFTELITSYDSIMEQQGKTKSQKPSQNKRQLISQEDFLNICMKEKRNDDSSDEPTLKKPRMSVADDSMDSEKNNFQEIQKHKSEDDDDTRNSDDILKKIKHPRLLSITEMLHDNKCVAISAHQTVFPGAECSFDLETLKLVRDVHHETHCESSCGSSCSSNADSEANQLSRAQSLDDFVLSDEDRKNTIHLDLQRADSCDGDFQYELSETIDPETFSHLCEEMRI
Experimental: From 0.1 to 1 μg of SIR-2.1 and 1 μg of dSir2 were used per deacetylation assay as previously described with modifications (SIR-2.1: 200 μM NAD^+, 10 μM Fluor de Lys, FdL; dSir2: 25 μM NAD^+, 10 μM FdL)^26. STACs were dissolved at 10 mM in dimethylsulfoxide (DMSO) the day of the assay. In vitro fluorescence assay results were read in 96-well microplates (Corning Costar 3693) with a Wallac Victor Multilabel counter (Perkin Elmer, excitation at 360 nm, emission at 450 nm). Drosophila S2 cells were grown in Schneider media with fetal calf serum at 23-28° C., seeded at 9×10^4 cells/well, grown overnight and then exposed to 1 μM TSA, 500 μM polyphenols, and 200 μM FdL for 2 hr. Deacetylation of FdL with lysate from whole cells was determined as described^4. Unless otherwise indicated all initial rate measurements were means of three or more replicates obtained with single incubation times, at which point 5% or less of the substrate initially present was deacetylated.

[3] = molecular target: T2, SIRT1 deacetylase (BIOMOL) (Homo sapiens, UniProt Q96EB6); assay: High-throughput SIRT1 screening protocol (Fluor de Lys-SIRT1, 384 well); assay type: biochemical; conditions: positive controls; roughly 50 μM, 200 μM NAD+, 5 μM Fluor de Lys-SIRT1
T2 construct: purchased BIOMOL
T2 sequence (Q96EB6 1-747): T1 sequence (Q96EB6 1-747)
Experimental: The reaction mixture contains (final): 0.5 units/reaction SIRT1 deacetylase (BIOMOL); 200 μM NAD^+; 5 μM Fluor de Lys-SIRT1 substrate (BIOMOL); buffer (25 mM Tris/Cl, pH 8.0, 137 mM NaCl, 2.7 mM KCl, 1 mM MgCl2, and 1 mg/ml BSA). In addition, a reaction mixture containing no enzyme was made so that each well receiving compound has a corresponding “no enzyme control” well. Reactions were performed in black 384 well plates (NUNC) in a final volume of 25 μl/well.
The reactions were started by combining enzyme and substrate in a reaction mixture immediately prior to aliquoting in plates (or substrate only for “no enzyme control” plates). Mixture were aliquoted to plates using Biotek μFill (Biotek Instruments). Control mixtures were manually added to designated wells. A library compound was added at a desired concentration by pin transfer to both “with enzyme” and “no enzyme” plates. Compounds were added in at least triplicate (with enzyme reaction in duplicate and no enzyme controls) at a final concentration of roughly 50 μM. The plates were incubated at 37° C. for 30-60 minutes. Then 25 μl of 1× Developer II (BIOMOL) plus 2 mM nicotinamide were added to all wells to stop the reactions. The reactions were left for at least 30 minutes at 37° C. for the signal to develop. The plates were read in a microplate-reading fluorometer capable of excitation at a wavelength in the range of 350-380 nm and detection of emitted light in the range of 440-460 nm. A read time of 0.1 sec per well was used.

C. elegans [4] = assay: C. elegans fat accumulation, Nile Red staining; assay type: in vivo
Experimental: Fat accumulation was visualized with Nile Red staining, as described further below and in Ashrafi K, et al. Nature 421:268-27 (2003).
Synchronized starved L1 worms were grown in the presence of Nile Red. Strains were grown on NGM plates at 25° C. for approximately 48 hours until the young adult stage was reached. 20-30 young adult worms were then washed 2× with M9 buffer and transferred to new NGM/Nile red experimental plates that contained either OP50 or HTT5 E. coli carrying the L4440 RNAi control vector.
Young adults were transferred to plates containing the appropriate vector, Nile Red stain and drug then maintained at 25° C.
Nile Red: Nile Red Powder (Sigma #N-3013) was dissolved in acetone at 500 μg/ml, diluted in 1× Phosphate Buffered Saline (PBS) including appropriate drug and applied to surface of Nematode Growth Media (NGM) plates previously seeded with OP50 or RNAi bacteria, at a final concentration of 0.05 μg/ml. Fat content was monitored and recorded by fluorescence microscopy.

## Oc1ccc(/C=C/c2cc(O)cc(O)c2)cc1 [Resveratrol, 3,5,4′-Trihydroxy-trans-stilbene]
Recombinant human SIRT1; 25 μM NAD+, 25 μM p53-382 acetylated peptide
  Concentration at which the activating effect was essentially saturated: 100 λM
Recombinant human SIRT1; 1 mM p53-382 acetylated peptide, variable NAD+, +100 μM resveratrol (control 1863)
  Vmax: 1749 AFU/min
Recombinant human SIRT1; 3 mM NAD+, variable p53-382 acetylated peptide, +100 μM resveratrol (control 1107)
  Vmax: 926 AFU/min
[1]; in the presence of the Sir2 inhibitor nicotinamide
  Effect on rDNA recombination: decreased
[1]; sir2 strain
  Effect on rDNA recombination: does not suppress
C. elegans [2]; sir-2.1 null mutant
  Lifespan extension (in words): did not exhibit a significant lifespan extension
C. elegans [2]; wild-type worms, 100 μM, heat-killed or live E. coli, maximum
  Lifespan extension: up to 15%
Recombinant SIR-2.1; 100 μM resveratrol, 10 μM Fluor de Lys
  Km of SIR-2.1 for the co-substrate NAD+: lowered
Recombinant SIR-2.1; dose-dependent, maximum
  Stimulation of deacetylation: up to 2.5 fold
[3]
  Activation of SIRT1: 2.2 fold
C. elegans [4]; 100 μM, 48 hours, control 2.5% v/v DMSO
  Fat staining: Significant reduction
C. elegans [4]; DAF-16 mutant worms (mgDf47)
  Fat mobilization: stimulates fat mobilization
C. elegans [4]; RNA inactivation of TOC1.8 (AMPK) or F41E7.3 (COT)
  Fat mobilization: blocks resveratrol-stimulated fat mobilization
C. elegans [4]; Sir2.1 RNAi
  Fat mobilization: did not show resveratrol induced fat mobilization
C. elegans [4]; normal worms, RNAi vector alone
  Reduction of fat content: 75%
C. elegans [4]; wild-type N2, 10 μM or 50 μM
  Fat accumulation (in words): marked decrease
C. elegans [4]; wild-type N2, 100 μM, overnight
  Reduction of fat accumulation: 90%
